Consider 3 molecules from patent US20110003321A1, “Monitoring of Intercellular Mitochondorial Polarization” (Kyushu University National University Corporation, priority 2005, published 2011).

Common to all, as to assay type: cell-based
Assay [1] has as its system Human liver cancer cells HepG-2. Put plainly: Evaluation of lipid metabolism activity using SPR. The following applies: 25 μM and 50 μM fenofibrate; especially about 20 minutes after the reagent was added; FIG. 2. As to the method: Measurement of SPR signals and fluorescent microscopic observation were carried out using a device having a fluorescent microscope located above living cells, which cells are a target of the measurement, and an SPR sensor located under the living cells. […] An optical system of Kretschmann configuration was used as an SPR sensor. BK7 (with a refractive index of 1.51) was used as a prism. A semiconductor laser (with a wavelength of 670 nm, an output of 3 mW, and a beam diameter of 1 mm) was used as a light source. A silicon photodiode detector was used as a detector. The measurement was carried out in the atmosphere (with 20% O2 and 0.035% CO2), unless otherwise stated.
(§1) Human liver cancer cells HepG-2 were used as test cells. A liquid medium EMEM containing 100 μM nonessential amino acid, 50 units/mL penicillin, 50 μg/mL streptomycin, and 10% (v/v) FBS was prepared, at 37° C. with a CO2 concentration of 5%, to be used as a complete medium, and the cells were pre-cultured in the complete medium and then used in the testing. Fenofibrate (2-[4-(4-Chlorobenzoyl)phenoxy]-2-methylpropanoic acid isopropyl ester) was used as a lipid metabolism promoting agent. Lipid metabolism activity was evaluated at the time when 25 μM fenofibrate was added and at the time when 50 μM fenofibrate was added. […]
(Surface plasmon resonance follows binding to a sensor surface in real time, without labels.)

The test system is the same in assay [2]. Put plainly: Monitoring mitochondrial polarized state using fluorescent reagent JC-1 (HepG-2). The following applies: fenofibrate medium; especially about 20 minutes after the reagent was added; FIG. 3. As to the method:
The fluorescent microscopic observation was carried out with the use of Axioplan 2 (Carl Zeiss) as a microscope, a 75-W xenon lamp as a light source, and NTE/CCD Detector MicroMAX-512BFT (Princeton Instruments) as a detector. Images were obtained and analyzed with the use of fluorescence analysis software, MetaFluor Imaging System Ver. 4.65 (Universal Imaging).
as §1
Following pre-culture, the test cells were removed from the petri dish, and the concentration of the test cells in the complete medium was adjusted to 2×10^6 cell/mL. […] To detect fluorescence, a set of filters that transmitted 515-565 nm and a set of filters that transmitted 575-640 nm were used. […]

The test system of assay [3] is Human pancreas cancer cells MIA PaCa-2. Put plainly: Measurement of SPR angle, agents alone or in combination. The following applies: 25 μM each agent; 50 minutes after the administration; FIG. 13. As to the method: SPR angles were measured with the above-described SPR sensor (tilting sensor) at the temperature of 37.0° C. Likewise in the measurement of the survival rate, a cell suspension of 2×10^6 cell/mL was prepared, and 100 μL of the cell suspension was dropped onto a gold plate for SPR measurement and cultured for 20 hours at 37° C. with the CO2 concentration of 5%. After 20 hours, the plate was placed on the prism of the SPR sensor, and on the plate was filled 5 mL EMEM. Then, measurement was started. Ten minutes after the measurement was started, either a replacement with new 5 mL EMEM (DMSO used as the solvent of the phenol component was contained at a final concentration of 0.1% (v/v)) containing 25 μM quercetin, 25 μM trans-resveratrol, or both 25 μM quercetin and 25 μM trans-resveratrol, or a replacement with 5 mL EMEM containing only 0.1% (v/v) DMSO as a control was carried out, and then the measurement of the changes in SPR angle was continued for another 50 minutes.

The test system is the same in assay [4]. Put plainly: Survival rate by counting the number of cells (trypan blue, standard method), combined use of agents. To be noted: 25 μM each agent; 48 hours after medium replacement; FIG. 12. As to the method:
The effect of combined use of plural agents was evaluated by a method including co-culturing a test agent with the cells, and counting the number of reduced cells by apoptosis. Human pancreas cancer cells MIA PaCa-2 were used as the test cells. A cell suspension of 5×10^4 cells/mL was prepared with the use of EMEM (Eagles' minimum essential medium) containing 10% (v/v) FBS, 50 units/mL penicillin, 50 μg/mL streptomycin, and 100 μM nonessential amino acid, and 5 mL of the cell suspension was poured into each 6-cm petri dish and pre-cultured at 37° C. with the CO2 concentration of 5%. After 24 hours, either a replacement with new 5 mL EMEM (DMSO used as the solvent of the phenol component was contained at the final concentration of 0.1% (v/v)) containing 25 μM quercetin, 25 μM trans-resveratrol, or both 25 μM quercetin and 25 μM trans-resveratrol in addition to the medium, or a replacement with 5 mL EMEM containing only 0.1% (v/v) DMSO as a control was carried out, and then culturing was carried out. Forty eight hours after the medium was replaced, trypan blue staining was carried out, and then the number of cells was counted with a hemocytometer. Comparison was carried out for the respective conditions, with 100 representing the number of cells in the control.

With `CC(C)OC(=O)C(C)(C)Oc1ccc(C(=O)c2ccc(Cl)cc2)cc1` [fenofibrate, 2-[4-(4-Chlorobenzoyl)phenoxy]-2-methylpropanoic acid isopropyl ester], in assay [1], the “changes in SPR signals resulting from mitochondrial polarization due to activation of lipid metabolism” value was “changes (−) were observed in the SPR signals”. Also, the “fluorescence intensity (JC-1) resulting from mitochondrial polarization due to activation of lipid metabolism” value in assay [2] is recorded as “increase in fluorescence intensity”.
In the case of `O=c1c(O)c(-c2ccc(O)c(O)c2)oc2cc(O)cc(O)c12` [quercetin, Quercetin], the “change in SPR angle” value in assay [3] was “approximately 0.05 degrees”. Moreover, in assay [4], the “survival rate (number of cells, control = 100)” value amounted to 76.1%.
Regarding `Oc1ccc(/C=C/c2cc(O)cc(O)c2)cc1` [trans-resveratrol], in assay [3], the “change in SPR angle” value is listed as “approximately 0.05 degrees”. Further, in assay [4], the “survival rate (number of cells, control = 100)” value is on record as 56.2%.
